The values below come from publication PMC4725915, “Ruthenium(II) Complexes with 2-Phenylimidazo[4,5-f][1,10]phenanthroline Derivatives that Strongly Combat Cisplatin-Resistant Tumor Cells” (Scientific Reports, 2016).

For orientation: IC50 means the concentration at which inhibition is half-maximal.

Holding throughout (type): cell-based, human
In assay [1] the test system is A549R cells. The assay is described as follows: AO/EB staining apoptosis assay. Particulars: 0.50–2.0 μM. The text has this: Cell apoptosis is a naturally occurring, programmed and targeted cellular death mechanism that is very complex and is regulated by some proteins. This process is also greatly affected by extrinsic conditions. Therefore, it is important to study the influence of drug-induced cellular apoptosis. Firstly, the induction of A549R cell apoptosis by complex 4 was investigated by apoptosis assays using AO/EB staining and fluorescence microscopy. […] Necrotic cells are stained in red but have nuclear morphologies that resemble those of viable cells.

Assay [2] relates to A549R cells. Briefly: Intracellular ROS (DCFH-DA staining). Conditions: 0.5 μM, 12 h. As to the method: TrxR is a key enzyme in the regulation of the intracellular redox environment. However, cellular oxidative stress is known to trigger the initiation of apoptotic signaling, which results in cell death. Complex 4 was proven to inhibit the activity of TrxR and could induce severe oxidative stress in A549R cells. To assess the capacity of complex 4 to generate intracellular reactive oxygen species (ROS), A549R cells were treated with different concentrations of complex 4 for 12 h and stained with 2′,7′-dichlorofluorescein diacetate (DCFH-DA)[46]. DCFH-DA is an oxidation-sensitive dye that is specifically detected by measuring the enhanced green fluorescent intensity caused by intracellular ROS. This dye was used to quantify the generation of intracellular ROS. […] These findings were further confirmed with flow cytometric analyses (Fig. 5d).
The generation of reactive oxygen species (ROS) in A549R cells was measured using a ROS sensitive fluorescent probe, 2,7-dichlorodihydrofluorescein diacetate (DCFH-DA). […] The levels of intracellular ROS were examined with an inverted fluorescence microscope (Zeiss Axio Observer D1) and flow cytometry (FACSCanto II, BD Biosciences, USA). The excitation wavelength was 485 nm, and the fluorescence was measured at 530 nm. […]

Assay [3] has as its system TrxR. The assay is described as follows: TrxR activity assay in A549R cells (DTNB reduction). Particulars: 4.0 μM, 12 h. The source says: (§1) The elevated levels of TrxR in cancers, especially in non-small cell lung cancers, are responsible for drug resistance. The thioredoxin system has a significant influence on intracellular physiological processes, such as antioxidant defense, cell functions, cell apoptosis and cell proliferation. TrxR has previously been identified as a drug target. […] In addition, the expression levels of TrxR in A549R cells in response to the addition of complex 4 were also examined by Western blot analysis.
A549R cells (2 × 10^6 cells) treated or untreated with complex 4 for 12 h were homogenized in 100–200 μl of cold assay buffer on ice and a protease inhibitor cocktail was added to the sample; the sample was then centrifuged at 10,000 x g for 15 min at 4 °C. The supernatant was collected for the assay and stored on ice. The protein concentration of each supernatant was determined using the Bradford reagent. A total of 40 μl of the reaction mix (30 μl assay buffer, 8 μl 5, 5′-dithiobis (2-nitrobenzoic) acid (DTNB) solution and 2 μl NADPH) was added to each sample and incubated at 25 °C for 20 min. TrxR catalyzes the reduction of DTNB by NADPH to 5-thio-2-nitrobenzoic acid (TNB2), which generates a strong yellow color (λmax = 412 nm); consequently, the amount of […] was used to monitor the change in absorbance at 412 nm. […]

Assay [4] concerns TrxR. The assay is described as follows: Western blot of TrxR expression in A549R cells. Particulars: different concentrations, 12 h.
Source text: as §1
A549R cells were seeded into 10 cm tissue culture dishes (Corning), incubated for 24 h, and treated with complex 4 for 12 h. The cells were washed with ice-cold PBS and lysed by incubation in radio immune precipitation assay buffer (RIPA) and a protease inhibitor cocktail (Sigma) for 30 min on ice. The lysates were centrifuged at 15000 rpm for 15 min at 4 °C, and the protein concentrations were quantified by a BCA protein assay reagent kit (Sigma). The proteins were separated on precast NuPAGE 4% to 12% polyacrylamide gradient Bis–Tris gels (Invitrogen) under denaturing conditions, transferred to PVDF membranes (Invitrogen), and subjected to Western blot analyses. […] The bound immune complexes were detected using an ECL prime Western blot detection reagent (Amersham Inc., USA). […]
A general note: A western blot detects proteins with antibodies after separation by electrophoresis.

A further assay relates to HeLa. Briefly: MTT cytotoxicity assay, HeLa. Particulars: 48 h, mean ± SD of three experiments. As to the method: Compounds 1–4 were evaluated against three tumor cell lines derived from different tissues, including the cervix (HeLa), lung (A549) and cisplatin-resistant lung (A549R) tissues. For comparison, the cytotoxicity of cisplatin was also evaluated. As a control, the toxicities of the complexes were also tested against the normal human cell line (LO2).
The human cervix carcinoma cell line (HeLa), the lung carcinoma cell lines (A549 and A549R), and the human hepatocyte cell line (LO2) were obtained from the Experimental Animal Center at Sun Yat-Sen University (Guangzhou, China). The cells were maintained in Dulbecco’s modified Eagle’s medium (DMEM, Gibco BRL) or Roswell Park Memorial Institute 1640 (RPMI 1640, Gibco BRL) medium supplemented with 10% fetal bovine serum (FBS, Gibco BRL), 100 μg/mL streptomycin, and 100 U/mL penicillin (Gibco BRL) in a humidified incubator under 5% CO2 and 20% O2 at 37 °C. To maintain the resistant phenotype, A549R cells were incubated with 5 μM cisplatin and cultured in drug-free medium for at least a week before use.
The cytotoxicity of the ruthenium complexes and cisplatin were determined by an MTT assay. Briefly, cells were seeded into 96-well microtiter plates at 1 × 10^4 cells per well and grown overnight at 37 °C in a 5% CO2 incubator; then, different concentrations of the complexes in cell culture medium were added to the cultures. The plates were then incubated in an incubator for 48 h under the same conditions. The stock MTT dye solution (15 μL, 5 mg/mL) was added to each well. After 4 h of incubation, the cultures were removed and 150 μL of DMSO was added to each well. The optical density of each well was measured on a microplate spectrophotometer at a wavelength of 595 nm.

Regarding Ru(phen)(bzq)(tbtfpip)(PF6) [Complex 4], the AO/EB staining result with A549R cells [1] is “predominantly induced apoptosis”. Further, the “intracellular ROS levels” value in the assay on A549R cells [2] is reported as “increase in ROS”. The “decline of intracellular TrxR activity” value in the assay with TrxR [3] is “approximately 45%”. Moreover, in the assay with TrxR [4], the “expression levels of TrxR” value is given as “downregulated”. In addition, the IC50 in the assay on HeLa was 2.4 ± 0.3 µM.
